Source: the CheMixHub ionic liquid set

Experiment: xn = mol fraction of the nth substance listed

CC[N+](CC)(CC)CC.[Cl-] + Oc1ccccc1
viscosity [mPa·s], 101 kPa
Details	303.15 K	323.15 K
x1 = 0.2	34.1	14.34
x1 = 0.25	38.6	–

CCCC[n+]1ccn(C)c1.N#C[S-] + [Br-].[Li+] + CN1CCCC1=O
298.15 K, 101 kPa
Details	viscosity [mPa·s]
x1 = 0.001086, x2 = 0.02623	2.384
x1 = 0.001092, x2 = 0.05108	3.161
x1 = 0.001138, x2 = 0.07527	4.38
x1 = 0.002508, x2 = 0.07516	4.412
x1 = 0.002857, x2 = 0.02618	2.408
x1 = 0.003083, x2 = 0.05098	3.197
x1 = 0.004195, x2 = 0.07504	4.452
x1 = 0.004231, x2 = 0.02614	2.429
x1 = 0.004315, x2 = 0.05092	3.225
x1 = 0.005622, x2 = 0.05085	3.261
x1 = 0.005708, x2 = 0.02611	2.45
x1 = 0.006129, x2 = 0.07489	4.48
x1 = 0.007405, x2 = 0.02606	2.464
x1 = 0.007466, x2 = 0.07479	4.509
x1 = 0.007731, x2 = 0.05075	3.29
x1 = 0.008848, x2 = 0.07469	4.531
x1 = 0.008873, x2 = 0.02602	2.492
x1 = 0.009097, x2 = 0.05068	3.316
x1 = 0.01032, x2 = 0.07458	4.563
x1 = 0.01035, x2 = 0.02598	2.521
x1 = 0.01065, x2 = 0.0506	3.345
x1 = 0.01201, x2 = 0.02594	2.555
x1 = 0.01214, x2 = 0.05052	3.376
x1 = 0.01216, x2 = 0.07444	4.604

CCCC[n+]1ccn(C)c1.N#C[S-] + [Cl-].[Li+] + CN1CCCC1=O
298.15 K, 101 kPa
Details	viscosity [mPa·s]
x1 = 0.000959, x2 = 0.03815	2.65
x1 = 0.001063, x2 = 0.07221	3.61
x1 = 0.001192, x2 = 0.104	4.991
x1 = 0.002304, x2 = 0.07212	3.657
x1 = 0.002399, x2 = 0.03809	2.683
x1 = 0.00252, x2 = 0.1039	5.021
x1 = 0.003854, x2 = 0.03804	2.715
x1 = 0.003994, x2 = 0.072	3.706
x1 = 0.00415, x2 = 0.1037	5.048
x1 = 0.005535, x2 = 0.03797	2.75
x1 = 0.005737, x2 = 0.1036	5.082
x1 = 0.005932, x2 = 0.07186	3.734
x1 = 0.006974, x2 = 0.07178	3.765
x1 = 0.007127, x2 = 0.1034	5.104
x1 = 0.007392, x2 = 0.0379	2.777
x1 = 0.008668, x2 = 0.1032	5.141
x1 = 0.008714, x2 = 0.07165	3.796
x1 = 0.009327, x2 = 0.03783	2.805
x1 = 0.009861, x2 = 0.07157	3.834
x1 = 0.009986, x2 = 0.1031	5.166
x1 = 0.01105, x2 = 0.03776	2.846
x1 = 0.01164, x2 = 0.1029	5.198
x1 = 0.01191, x2 = 0.07142	3.877
x1 = 0.01372, x2 = 0.03766	2.869

CC(=O)[O-].CC[n+]1ccn(C)c1 + [Cl-].[NH4+]
101 kPa, x2 = 0
Details	electrical conductivity [S/m]	viscosity [mPa·s]
308.15 K	0.473	71.3
318.15 K	0.76	44.2

CCCC[n+]1ccn(C)c1.N#C[N-]C#N + [I-].[Li+]
101 kPa, x1 = 1
Details	electrical conductivity [S/m]
288.15 K	0.611
298.15 K	0.883
333.15 K	2.18

CC(=O)[O-].CC[n+]1ccn(C)c1 + [N-]=C=S.[NH4+]
313.15 K, 101 kPa, x2 = 0
Details	electrical conductivity [S/m]	viscosity [mPa·s]
–	0.6	56.4

CCCC[P+](CCCC)(CCCC)CCCC.CS(=O)(=O)[O-] + c1c[nH]cn1
101.33 kPa, x1 = 0.5
Details	viscosity [mPa·s]
313.05 K	100
353.05 K	21.6

CCCC[n+]1ccn(C)c1.N#C[S-] + c1ccccc1
viscosity [mPa·s], 100 kPa
Details	x2 = 0	x2 = 0.2334	x2 = 0.258	x2 = 0.3919	x2 = 0.5094
298.15 K	62.8	33	30.7	20.1	12.51
308.15 K	40.6	22.5	21.1	14.29	9.27
318.15 K	27.8	16.2	15.23	10.64	7.16
328.15 K	20.1	12.19	11.52	8.25	5.65

CCCC[n+]1ccn(C)c1.N#C[S-] + c1ccsc1
viscosity [mPa·s], 100 kPa
Details	x2 = 0	x2 = 0.103	x2 = 0.143	x2 = 0.246	x2 = 0.61	x2 = 0.701
298.15 K	57.4	47.2	42.9	32	13.36	9.93
308.15 K	37.4	31.4	28.7	22	9.94	7.57
318.15 K	25.8	22.1	20.4	15.96	7.67	5.96
328.15 K	18.7	16.22	15.07	12.02	6.1	4.83
